Results: patent US11000033B2, “Ketone or oxime compound, and herbicide” (NISSAN CHEMICAL CORPORATION, priority 2014, dated 2021)

Tests used:
Type in all cases: in vivo
[1] = system: rapeseed; assay: Test Example 4: effect on crop by soil treatment (symbol g); details: application herbicide amount 320 g/ha
How it was run: (§1)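 Crop seed is sown in spots together with several weed species in a box of sterilized diluvial soil. It is covered by about 1.5 cm of soil and kept in a greenhouse held between 25° C. and 30° C.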

[2] = system: soybean; assay: Test Example 5: effect on crop by foliage application, plastic box (symbol d); details: 320 g/ha, 3 weeks after application
How it was run: (§2)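 Foliage-application test plants come from spot sowing in sterilized diluvial soil under a soil layer of about 1.5 cm, grown at 25° C. to 30° C. in a greenhouse.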

[3] = system: Chenopodium album; assay: Test Example 5: herbicidal effect by foliage application, plastic box (symbol O); details: 320 g/ha, 3 weeks after application
How it was run: (§3)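 Emulsion formulation, diluted with water to the intended rate, was applied uniformly to leaves by small sprayer. Recipients were 14-day greenhouse-grown seedlings (25° C. to 30° C.). Assessment followed at 3 weeks.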

[4] = system: Scirpus juncoides; assay: Test Example 2: herbicidal activity, application during weed generation in submerged conditions (symbol B); details: Table 23; application herbicide amount 320 g/ha; grade 0-5 by criteria of Test Example 1
How it was run: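 Compound was applied as a water-diluted emulsion into the standing water of flooded pots (4 cm) once co-sown weeds reached one to two leaves. Greenhouse temperature was 25° C. to 30° C., soil was alluvial, and each species was rated visually after 3 weeks.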

[5] = system: beet; assay: Test Example 4: effect on crop by soil treatment (symbol f); details: application herbicide amount 320 g/ha
How it was run: as §1

[6] = system: Avena fatua; assay: Test Example 4: herbicidal effect by soil treatment (symbol I); details: application herbicide amount 320 g/ha
How it was run: (§4)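 Seeds were sown in sterilized diluvial soil, covered with about 1.5 cm of soil, and the soil surface was sprayed with a water-diluted emulsion of the compound at a predetermined rate. Plants grew in a greenhouse at 25° C. to 30° C.; effects were scored visually 3 weeks after application.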

[7] = system: Scirpus juncoides; assay: Test Example 1: herbicidal activity, application before weed generation in submerged conditions (symbol B); details: application herbicide amount 320 g/ha
How it was run: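 Pre-emergence, paddy conditions: emulsifiable formulation diluted in water, dosed onto floodwater (4 cm depth) on sowing day. Alluvial soil; weeds sown mixed; rice transplanted at 2.5-leaf stage. Greenhouse 25–30 °C, 3 wk. Score 0–5 (5 = ≥90% kill, 0 = ≤5%).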

[8] = system: Setaria viridis; assay: Test Example 5: herbicidal effect by foliage application, plastic box (symbol G); details: 320 g/ha, 3 weeks after application
How it was run: as §3

[9] = system: Veronica persica; assay: Test Example 5: herbicidal effect by foliage application, plastic box (symbol R); details: 320 g/ha, 3 weeks after application
How it was run: as §3

[10] = system: Echinochloa crus-galli var. crus-galli; assay: Test Example 4: herbicidal effect by soil treatment (symbol H); details: application herbicide amount 320 g/ha
How it was run: as §4

[11] = system: Avena fatua; assay: Test Example 5: herbicidal effect by foliage application, plastic box (symbol I); details: 320 g/ha, 3 weeks after application
How it was run: as §3

[12] = system: Amaranthus retroflexus; assay: Test Example 4: herbicidal effect by soil treatment (symbol N); details: application herbicide amount 320 g/ha
How it was run: as §4

[13] = system: Galium spurium; assay: Test Example 5: herbicidal effect by foliage application, plastic box (symbol Q); details: 320 g/ha, 3 weeks after application
How it was run: as §3

[14] = system: Apera spica-venti; assay: Test Example 5: herbicidal effect by foliage application, plastic box (symbol L); details: 320 g/ha, 3 weeks after application
How it was run: as §3

[15] = system: beet; assay: Test Example 5: effect on crop by foliage application, plastic box (symbol f); details: 320 g/ha, 3 weeks after application
How it was run: as §2

[16] = system: wheat; assay: Test Example 4: effect on crop by soil treatment (symbol e); details: application herbicide amount 320 g/ha
How it was run: as §1

[17] = system: Galium spurium; assay: Test Example 4: herbicidal effect by soil treatment (symbol Q); details: application herbicide amount 320 g/ha
How it was run: as §4

Structure (SMILES) | Effect on crop grade, g: rapeseed [1] | d: soybean, effect on crop (criteria of Test Example 1) [2] | O: Chenopodium album, herbicidal effect (criteria of Test Example 1) [3] | Herbicidal effect grade, B: Scirpus juncoides [4] | Effect on crop grade, f: beet [5] | Herbicidal effect grade, I: Avena fatua [6] | Herbicidal effect grade, B: Scirpus juncoides [7] | G: Setaria viridis, herbicidal effect (criteria of Test Example 1) [8] | R: Veronica persica, herbicidal effect (criteria of Test Example 1) [9] | Herbicidal effect grade, H: Echinochloa crus-galli var. crus-galli [10] | I: Avena fatua, herbicidal effect (criteria of Test Example 1) [11] | Herbicidal effect grade, N: Amaranthus retroflexus [12] | Q: Galium spurium, herbicidal effect (criteria of Test Example 1) [13] | L: Apera spica-venti, herbicidal effect (criteria of Test Example 1) [14] | f: beet, effect on crop (criteria of Test Example 1) [15] | Effect on crop grade, e: wheat [16] | Herbicidal effect grade, Q: Galium spurium [17]
CON=C(C)CC1CC(OC(=O)COc2ccccc2)=C(c2c(C)cc(C)cc2OC)C1=O (stereo not shown) [6-091] | 4 (Herbicidal ratio of 70% or higher and lower than 90%) | 4 (Herbicidal ratio of 70% or higher and lower than 90%) | 3 (Herbicidal ratio of 40% or higher and lower than 70%) | 5 (Herbicidal ratio of 90% or more (almost completely withered)) | 1 (Herbicidal ratio of 5% or higher and lower than 20%) | 5 (Herbicidal ratio of 90% or more (almost completely withered)) | 5 (Herbicidal ratio of 90% or more (almost completely withered)) | 5 (Herbicidal ratio of 90% or more (almost completely withered)) | 4 (Herbicidal ratio of 70% or higher and lower than 90%) | 5 (Herbicidal ratio of 90% or more (almost completely withered)) | 5 (Herbicidal ratio of 90% or more (almost completely withered)) | 4 (Herbicidal ratio of 70% or higher and lower than 90%) | 3 (Herbicidal ratio of 40% or higher and lower than 70%) | 5 (Herbicidal ratio of 90% or more (almost completely withered)) | 3 (Herbicidal ratio of 40% or higher and lower than 70%) | 5 (Herbicidal ratio of 90% or more (almost completely withered)) | 0 (Herbicidal ratio of 5% or lower (almost no effect))
CON=C(C)CC1CC(OC(=O)N2CCOCC2)=C(c2c(C)cc(-c3ccc(F)c(Cl)c3)cc2C)C1=O (stereo not shown) [6-093] | 0 (Herbicidal ratio of 5% or lower (almost no effect)) | 2 (Herbicidal ratio of 20% or higher and lower than 40%) | 5 (Herbicidal ratio of 90% or more (almost completely withered)) | 3 (Herbicidal ratio of 40% or higher and lower than 70%) | 0 (Herbicidal ratio of 5% or lower (almost no effect)) | 0 (Herbicidal ratio of 5% or lower (almost no effect)) | 5 (Herbicidal ratio of 90% or more (almost completely withered)) | 5 (Herbicidal ratio of 90% or more (almost completely withered)) | 5 (Herbicidal ratio of 90% or more (almost completely withered)) | 5 (Herbicidal ratio of 90% or more (almost completely withered)) | 5 (Herbicidal ratio of 90% or more (almost completely withered)) | 0 (Herbicidal ratio of 5% or lower (almost no effect)) | 5 (Herbicidal ratio of 90% or more (almost completely withered)) | 5 (Herbicidal ratio of 90% or more (almost completely withered)) | 3 (Herbicidal ratio of 40% or higher and lower than 70%) | 0 (Herbicidal ratio of 5% or lower (almost no effect)) | 0 (Herbicidal ratio of 5% or lower (almost no effect))
CON=C(C)CC1CC(OS(=O)(=O)N(C)C)=C(c2c(C)cc(C)cc2OC)C1=O (stereo not shown) [6-095] | 4 (Herbicidal ratio of 70% or higher and lower than 90%) | 3 (Herbicidal ratio of 40% or higher and lower than 70%) | 5 (Herbicidal ratio of 90% or more (almost completely withered)) | 3 (Herbicidal ratio of 40% or higher and lower than 70%) | 0 (Herbicidal ratio of 5% or lower (almost no effect)) | 3 (Herbicidal ratio of 40% or higher and lower than 70%) | 4 (Herbicidal ratio of 70% or higher and lower than 90%) | 5 (Herbicidal ratio of 90% or more (almost completely withered)) | 3 (Herbicidal ratio of 40% or higher and lower than 70%) | 5 (Herbicidal ratio of 90% or more (almost completely withered)) | 5 (Herbicidal ratio of 90% or more (almost completely withered)) | 1 (Herbicidal ratio of 5% or higher and lower than 20%) | 0 (Herbicidal ratio of 5% or lower (almost no effect)) | 5 (Herbicidal ratio of 90% or more (almost completely withered)) | 0 (Herbicidal ratio of 5% or lower (almost no effect)) | 2 (Herbicidal ratio of 20% or higher and lower than 40%) | 0 (Herbicidal ratio of 5% or lower (almost no effect))
CON=C(C)CC1CC(O)=C(c2c(C)cc(-c3ccsc3)cc2C)C1=O (stereo not shown) [6-106] | 3 (Herbicidal ratio of 40% or higher and lower than 70%) | 1 (Herbicidal ratio of 5% or higher and lower than 20%) | 0 (Herbicidal ratio of 5% or lower (almost no effect)) | 5 (Herbicidal ratio of 90% or more (almost completely withered)) | 0 (Herbicidal ratio of 5% or lower (almost no effect)) | 3 (Herbicidal ratio of 40% or higher and lower than 70%) | 5 (Herbicidal ratio of 90% or more (almost completely withered)) | 5 (Herbicidal ratio of 90% or more (almost completely withered)) | 3 (Herbicidal ratio of 40% or higher and lower than 70%) | 5 (Herbicidal ratio of 90% or more (almost completely withered)) | 3 (Herbicidal ratio of 40% or higher and lower than 70%) | 0 (Herbicidal ratio of 5% or lower (almost no effect)) | 3 (Herbicidal ratio of 40% or higher and lower than 70%) | 5 (Herbicidal ratio of 90% or more (almost completely withered)) | 0 (Herbicidal ratio of 5% or lower (almost no effect)) | 0 (Herbicidal ratio of 5% or lower (almost no effect)) | 0 (Herbicidal ratio of 5% or lower (almost no effect))
CON=C(C)CC1CC(O)=C(c2c(F)cc(C)cc2OC)C1=O (stereo not shown) [6-108] | 4 (Herbicidal ratio of 70% or higher and lower than 90%) | 3 (Herbicidal ratio of 40% or higher and lower than 70%) | 2 (Herbicidal ratio of 20% or higher and lower than 40%) | 1 (Herbicidal ratio of 5% or higher and lower than 20%) | 0 (Herbicidal ratio of 5% or lower (almost no effect)) | 3 (Herbicidal ratio of 40% or higher and lower than 70%) | 3 (Herbicidal ratio of 40% or higher and lower than 70%) | 5 (Herbicidal ratio of 90% or more (almost completely withered)) | 2 (Herbicidal ratio of 20% or higher and lower than 40%) | 5 (Herbicidal ratio of 90% or more (almost completely withered)) | 5 (Herbicidal ratio of 90% or more (almost completely withered)) | 4 (Herbicidal ratio of 70% or higher and lower than 90%) | 3 (Herbicidal ratio of 40% or higher and lower than 70%) | 5 (Herbicidal ratio of 90% or more (almost completely withered)) | 0 (Herbicidal ratio of 5% or lower (almost no effect)) | 3 (Herbicidal ratio of 40% or higher and lower than 70%) | 3 (Herbicidal ratio of 40% or higher and lower than 70%)
